Measured values taken from US20060276423A1, “Survivin-directed RNA interference-compositions and methods” (priority 2005, published 2006).
Starred links: 1 amine or outer side, 2 acyl side, 3 side chain; linkers in the order of their positions; H or OH if unused. Positions of bridges follow the written chain, without caps; N, C: chain ends. Non-standard residues stand in square brackets, D forms with d. Residues, ends and D or L forms follow the SMILES beside them. Chains are numbered I, II in the order given. Actinocin(9to1) = Cc1c2oc3c(C)ccc(C(=O)[*:1])c3nc-2c(C(=O)[*:2])c(N)c1=O; NMeV = CN[C@H](C(=O)O)C(C)C; Sar = CNCC(=O)O

System: Human Umbilical Vein Endothelial (HUVE) cells
Assay: In vitro tube formation assay on BME
Type: cell-based
Details: most marked between 4 and 16 hours after plating
Method: FIG. 7: Interference with Survivin-ΔEx3 inhibits angiogenesis in vitro. Human Umbilical Vein Endothelial (HUVE) cells were transfected with shRNAs of the instant invention or incubated with antibodies against Survivin-ΔEx3 and the results compared to HUVE cells treated with known inducers/inhibitors of in vitro angiogenesis. Treated/transfected cells were plated on growth factor reduced basement membrane extract (BME) to support in vitro tube formation. […] Quantitative data shown in (E) are mean±s.e. of 5 replicates per sample.
Survivin ΔEx3 activity was disrupted in an in vitro tube formation assay by either downregulating Survivin ΔEx3 mRNA with an shRNA or inhibiting Survivin ΔEx3 protein with an anti-Survivin ΔEx3 antibody. To downregulate transcription, an shRNA targeting the exon2-exon-4 boundary, specific for Survivin ΔEx3 was used. A scrambled shRNA and a cocktail of 3 shRNAs targeting all Survivin isoforms were used as controls (FIG. 7). HUVECs were transfected with shRNA plasmids in combination with a plasmid encoding eGFP. The cells were sterile sorted by FACS to isolate the population of cells that was successfully transfected, based on eGFP fluorescence. […] Tube formation was quantified by counting the number of branches and tube length from 5 representative fields per replicate, in a double-blinded fashion.

With Cc1c2oc3c(C)ccc(C(=O)N[C@@H]4C(=O)N[C@H](C(C)C)C(=O)N5CCC[C@H]5C(=O)N(C)CC(=O)N(C)[C@@H](C(C)C)C(=O)O[C@@H]4C)c3nc-2c(C(=O)N[C@@H]2C(=O)N[C@H](C(C)C)C(=O)N3CCC[C@H]3C(=O)N(C)CC(=O)N(C)[C@@H](C(C)C)C(=O)O[C@@H]2C)c(N)c1=O [actinomycin-D] (I: T[dV]P[Sar][NMeV] / II: T[dV]P[Sar][NMeV]; ester I:1-I:C, II:1-II:C; linker I:N-II:N via Actinocin(9to1)) the “tube formation on BME” value was “inhibition of tube formation”.
